Test results reported in patent publication US20100227841A1, “Patient populations and treatment methods” (Harbor BioSciencs, Inc., priority 2008, published 2010).

Test system: type 2 diabetes patients
Test: Phase 2 monotherapy protocol in treatment naive type 2 diabetes patients
Type: in vivo, human
Description: A phase 2 clinical treatment protocol was conducted in type 2 diabetes patients using a monotherapy consisting of 17α-ethynylandrost-5-ene-3β,7β,17β-triol. The patients had not been treated with another antidiabetic agent or any insulin sensitizer such as metformin for at least 90 days before the start of dosing. […] The patients (n=51) received 10 mg/day of 17α-ethynylandrost-5-ene-3β,7β,17β-triol (5 mg twice per day) for 84 days and were then followed until day 112. Effects of treatment were examined in subsets of patients having differing BMI values.

**Q.** `C#C[C@]1(O)CC[C@H]2[C@@H]3[C@@H](O)C=C4C[C@@H](O)CC[C@]4(C)[C@H]3CC[C@@]21C` [17α-ethynylandrost-5-ene-3β,7β,17β-triol] was tested. Which C-reactive protein (BMI greater than 31.3 kg/m^2, day 57, p=0.053) did it give?
**A.** Its C-reactive protein is “trend to decreased”.

**Q.** What about the “patients with decreased HbA1c to <7%” value (BMI greater than 31.3 kg/m^2, day 84, placebo 0/14) of the same compound?
**A.** Its value is 2/9.

**Q.** What about the “decreases in serum MCP-1” value (BMI greater than 31.3 kg/m^2, days 29, 57 and 84) of the same compound?
**A.** Its value is over 600 pg/mL.

**Q.** And the “observed effects in lower BMI subset” value (patients having a BMI of less than about 31)?
**A.** The value was “less pronounced”.

**Q.** What about the HbA1c decrease (patients with BMI greater than 31.3 kg/m^2 (n=22), 10 mg/day for 84 days, day 112, p=0.041) of the same compound?
**A.** The HbA1c decrease was 1.1%.
